Test results taken from publication PMC12040169 (PLOS Biology, 2025).
In brackets after ≈: the same amount, converted by molar mass.

What was measured:
in vitro = assay: in vitro; parameters: Viability of infected HeLa host cells, resazurin conversion, bulk resorufin fluorescence relative to DMSO; settings: human, hela cells; bulk resorufin, mean of 3
[1] = tested on: T1, CTL2-GFP (C. trachomatis L2/434/Bu, GFP-expressing); assay: microbe, parasite or virus in culture; parameters: C. trachomatis growth in HeLa, dose-response, mean of bulk GFP fluorescence and imaged total inclusion area; settings: Chlamydia trachomatis, HeLa, 28.5 h; mean of GFP and inclusion area
T1 construct: L2/434/Bu, GFP-expressing
How it was run: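 Screening measures GFP fluorescence from the reporter strain and resorufin fluorescence for host viability, with Hoechst-based imaging of fixed cells adding inclusion area, inclusion number and nuclei count per well.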

[2] = tested on: T1, CTL2-GFP (C. trachomatis L2/434/Bu, GFP-expressing); assay: microbe, parasite or virus in culture; parameters: species or system HeLa; C. trachomatis growth in HeLa, dose-response, mean of bulk GFP fluorescence and imaged total inclusion area; settings: Chlamydia trachomatis, 28.5 h; mean of GFP and inclusion area
From the text: We screened a library of 36,785 small molecules displaying drug-like properties and covering a wide chemical space (Fig 1A and S2A Data). In this process, we also complemented the assay described above with an imaging-based readout (Fig 1B). After measurements of bulk GFP and resorufin fluorescence, cells were fixed, stained with the DNA dye Hoechst, and imaged at a high-content imaging platform to detect chlamydial inclusions (GFP) and host cell nuclei (Hoechst). The total area and number of inclusions in individual wells and the number of nuclei then served as additional proxies for chlamydial growth and host cell viability. […] MICs were calculated as described above.

Row | SMILES | viability at 28.5 h, 0.000416667 µM (in vitro) | viability at 28.5 h, 0.00125 µM (in vitro) | viability at 28.5 h, 0.00375 µM (in vitro) | viability at 28.5 h, 0.0123333 µM (in vitro) | viability at 28.5 h, 0.037 µM (in vitro) | viability at 28.5 h, 0.111 µM (in vitro) | viability at 28.5 h, 0.333 µM (in vitro) | viability at 28.5 h, 1 µM (in vitro) | viability at 28.5 h, 3 µM (in vitro) | viability at 28.5 h, 10 µM (in vitro) | viability at 28.5 h, 30 µM (in vitro) | IC50 [1] | MIC [2]
1 | COc1ccc(C2CC(=O)C=C(Nc3cc(Cl)ccc3O)C2)cc1 (centres unmarked) [c24e] | 94% | 92.4% | 94.1% | 84.9% | 89.8% | 84.5% | 88.6% | 85.7% | 87.6% | 83.7% | 88.4% | 2.46 µM | 5.71 µM (≈ 1.96 µg/mL)
2 | COCC(=O)N[C@H]1C[C@H]2C(=O)Nc3ccc(/C=C/c4ccccc4)cc3C(=O)N2C1 [c25e] | 97.4% | 103% | 99.5% | 105% | 100% | 98.6% | 102% | 106% | 110% | 113% | 113% | 2.47 µM | 9.14 µM (≈ 3.71 µg/mL)
3 | O=C(Nc1ccc(OC(F)(F)F)cc1)Nc1cc(-c2cccs2)n[nH]1 [c26e] | 104% | 100% | 99.3% | 100% | 96.1% | 106% | 106% | 108% | 105% | 103% | 96.4% | 2.5 µM | 3.98 µM (≈ 1.47 µg/mL)
4 | CN(C)c1ccc(Nc2nc(NCCO)c3ccccc3n2)cc1 [c27e] | 93.3% | 89.2% | 89.8% | 89.3% | 93.2% | 89.1% | 95.3% | 89.9% | 103% | 99.4% | 110% | 2.54 µM | 5.04 µM (≈ 1.63 µg/mL)
5 | O=C(Nc1ccccc1N1CCCNCC1)c1ccc2ccccc2c1 [c29e] | 108% | 107% | 108% | 107% | 109% | 116% | 114% | 115% | 111% | 116% | 112% | 2.87 µM | 5.56 µM (≈ 1.92 µg/mL)
6 | CCC1C(c2ccc(C)cc2)=CCC(C(=O)NCCCN(C)C)C1C (centres unmarked) [c30e] | 91.8% | 95.1% | 91.6% | 87.1% | 90.5% | 97.1% | 87.9% | 92.4% | 89.5% | 94.4% | 55.5% | 3.07 µM | 8.94 µM (≈ 3.06 µg/mL)
7 | Fc1cc(Br)c(CNCc2ncc[nH]2)c(N2CCCCC2)c1F [c31e] | 101% | 103% | 98.4% | 96.4% | 92% | 100% | 93.6% | 97.6% | 101% | 97.6% | 102% | 3.12 µM | 5.18 µM (≈ 1.99 µg/mL)
8 | COc1ccc2cc3c(nc2c1)OC(=O)N(CC1CC1)C3 [c32e] | 102% | 94.1% | 91.5% | 92% | 89.7% | 84.5% | 88.5% | 84.9% | 86.8% | 85.1% | 85.4% | 3.16 µM | 4.53 µM (≈ 1.29 µg/mL)
